The text below walks through data of patent publication US20060229358A1, “Pharmaceutical composition containing flavonoids” (Taipei Medical University, priority 2005, published 2006).

Each structure is given as a SMILES string. Bounds are passed on as bounds.

The assay has as its system PDE1. Put plainly: Inhibition of cyclic nucleotide PDE activity (Assay I), PDE1. It is filed as biochemical, guinea pig. The note with it: mean ± S.E.M. (n); read-out: IC50 on phosphodiesterase isozyme 1. The method, then: Under a protocol approved by the Animal Care and Use Committee of Taipei Medical University, five male guinea pigs (Hartley), weighing 500-600 g, were sacrificed. The lungs (15 g) or hearts (4 g) taken therefrom were chopped into small pieces and homogenized with a glass/teflon homogenizer (Glas-Col, Terre Haute, Ind., USA) in 10 volumes of cold medium (pH 6.5) containing 20 mM Bis-Tris, 2 mM benzamidine, 2 mM EDTA, 50 mM sodium chloride, 0.1 mM phenylmethanesulfonyl fluoride (PMSF), and 1 mM dithiothreitol. At 4° C., the homogenate was centrifuged at 170 g for 15 min, and the supernatant thereof was then re-centrifuged at 40,000 g for 30 min. The final supernatant fraction was filtered through the 0.22 μm filter and applied to a Q-sepharose fast flow column (2.2×28 cm), which is pre-washed and pre-equilibrated in homogenization buffer. The column was washed with two bed volumes of homogenate buffer to remove unbound material, where the resin beads therein will bind with proteins, such as PDE proteins. Proteins bound to the Q-sepharose beads were eluted with various concentrations (0.23, 0.34, 0.44, 0.69, and 1.00 M) of NaCl dissolved in homogenate buffer (for each concentration, 40-50 mL elution buffer were applied) at a flow rate of 30 ml/h. Fractions (3 ml each) were collected, and ethylene glycol (EG) was added thereto until a final concentration of 30% (v/v). And then the samples were frozen at −70° C. Under these conditions, the enzyme activity was stable for at least 3 months.
In order to eliminate possible contamination of PDE5 by PDE1, the above-collected fractions with enzyme activity was further purified on a calmodulin-agarose column. The column (1.6 cm×4 cm) was pre-equilibrated by a buffer A, which contains 20 mM Bis-tris, 1 mM dithiothreitol, 2 mM benzamidine, 50 mM NaCl, 3 mMMgCl2, 0.1 mM CaCl2, and 0.1 mM PMSF, pH 6.5. The sample (the mixture of PDE5 and PDE1), being purified by the above-mentioned column, with the CaCl2 concentration thereof adjusted to at least 2 mM previously, was loaded and allowed to be absorbed on the gel for 30 min. Then, the PDE isozymes were eluted by stepwise elution using 20 ml of buffer A with 1 M NaCl followed by 20 ml of buffer A with 1 M NaCl and with 1 mM EGTA. PDE5 was collected first followed by PDE1.
The activities of PDE1-5 in the homogenate were measured with a two-step procedure according to the method of Thompson and Appleman, using cAMP with [^3H]-cAMP or cGMP with [^3 H]-cGMP as substrates. The PDE enzyme prepared (25 μl) with 10 μl inhibitor or the solvents therefor was incubated for 30 min at 37° C. in a total assay buffer, where the final volume of the assay is amounted to 100 μl. In accordance with the features of the PDE isozymes, the assay buffer contains 50 mM Tris/HCl (pH 7.4), 3 mM MgCl2, 1 mM dithiothreitol, and 0.05% BSA, and optionally contains 1 uM cAMP with 0.2 μCi [^3H]-cAMP as a substrate alone or in the presence of 0.1 unit calmodulin with 10 μM CaCl2, or 5 μM cGMP, and 1 μM cGMP with 0.2 μCi [^3H]-cGMP as another substrate alone or in the presence of 0.1 unit calmodulin with 10 μM CaCl2. In assay of enzyme inhibition, the assay mixture contained with the inhibitors at various concentrations of flavonoids in the Table 1 or the selective PDE1-5 inhibitors as reference drugs. For example, the selective PDE1-5 inhibitors are vinpocetin [30], EHNA [31], milrinone, Ro 20-1724 [33], and zaprinast, respectively.
The PDE enzyme and the inhibitors (or their solvent) therefor were mixed and incubated on ice for 30 min previously, and then mixed with the assay buffer. The assay was initiated by transferring the mixture to a water bath at 37° C. Following the other 30 min incubation, the reaction was stopped by transferring the reaction vessel to a bath of boiling water for 3 min. After cooling on ice, 20 μl of the 1 mg/ml of Crotalus atrox venom was added to the reaction mixture, and the mixture was incubated at 37° C. for 10 min. […]
In general, IC50 refers to the midpoint of a concentration-inhibition curve. Turning to `O=c1cc(-c2ccc(O)c(O)c2)oc2cc(O)cc(O)c12` [Luteolin], the IC50 was determined as 21.5 ± 2.9 µM. For `O=c1c(-c2ccc(O)cc2)coc2cc(O)cc(O)c12` [Genistein] the value was 16.8 ± 2.3 µM; for `O=c1cc(-c2ccc(O)c(O)c2)oc2cc(O[C@@H]3O[C@H](CO)[C@@H](O)[C@H](O)[C@H]3O)cc(O)c12` [Luteolin-7-glucoside], over 100 µM. As for `O=c1cc(-c2ccccc2)oc2cc(O)cc(O)c12` [Chrysin], the half-maximal inhibitory concentration (IC50) was over 100 µM. On to `O=c1cc(-c2ccc(O)cc2)oc2cc(O)cc(O)c12` [Apigenin], for which the IC50 stood at 25.4 ± 3.7 µM. Under `O=C1CC(c2ccc(O)c(O)c2)Oc2cc(O)cc(O)c21` (stereo not drawn) [Eriodictyol] stands over 100 µM; under `O=c1c(O)c(-c2cc(O)c(O)c(O)c2)oc2cc(O)cc(O)c12` [Myricetin], 24.9 ± 3.6 µM. For the molecule `O=c1c(O)c(-c2ccc(O)c(O)c2)oc2cc(O)cc(O)c12` [Quercetin], the concentration for half-maximal inhibition (IC50) was determined as 27.8 ± 5.7 µM. Take `COc1ccc(-c2coc3cc(O)cc(O)c3c2=O)cc1` [Biochanin A]: the concentration for half-maximal inhibition (IC50) is 29.1 ± 0.3 µM. Regarding `COc1cc(O)c2c(=O)c(-c3ccc(O)cc3)coc2c1` [Prunetin], the IC50 was over 100 µM.

Consider `O=c1c(-c2ccc(O)cc2)coc2cc(O)ccc12` [Daidzein], for which the IC50 was over 100 µM. For `COc1ccc(C2CC(=O)c3c(O)cc(O)cc3O2)cc1O` (stereo not drawn) [Hesperetin] the value was over 100 µM.
